What was measured:
Test in all cases: relative viability (nuclei count vs DMSO), 5 days (fraction); higher = more cells survive
OSI-027 + AZD7762 = compound: COc1cccc2cc(-c3nc([C@H]4CC[C@H](C(=O)O)CC4)n4ncnc(N)c34)[nH]c12 [OSI-027] + NC(=O)Nc1cc(-c2cccc(F)c2)sc1C(=O)N[C@H]1CCCNC1 [AZD7762] (partner 0.2 µM)
Method in brief: (§1)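 Values are medians from duplicate plates. Each reflects relative viability, defined as the nuclei count of treated wells over that of vehicle wells. Lung cancer cell lines in 1536-well plates were pin-tool dosed one day after seeding with one drug alone or with a fixed anchor-drug dose plus five library-drug doses (not always all listed) in √10 steps, then fixed, stained and imaged at 4× after 5 days.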

OSI-027 + Decitabine = compound: COc1cccc2cc(-c3nc([C@H]4CC[C@H](C(=O)O)CC4)n4ncnc(N)c34)[nH]c12 [OSI-027] + Nc1ncn([C@H]2C[C@H](O)[C@@H](CO)O2)c(=O)n1 [Decitabine] (partner 2 µM)
Method in brief: as §1

OSI-027 + Olaparib = compound: COc1cccc2cc(-c3nc([C@H]4CC[C@H](C(=O)O)CC4)n4ncnc(N)c34)[nH]c12 [OSI-027] + O=C(c1cc(Cc2n[nH]c(=O)c3ccccc23)ccc1F)N1CCN(C(=O)C2CC2)CC1 [Olaparib] (partner 8 µM)
Method in brief: as §1

Alpelisib + Bortezomib = compound: Cc1nc(NC(=O)N2CCC[C@H]2C(N)=O)sc1-c1ccnc(C(C)(C)C(F)(F)F)c1 [Alpelisib] + CC(C)C[C@H](NC(=O)[C@H](Cc1ccccc1)NC(=O)c1cnccn1)B(O)O [Bortezomib] (partner 0.002 µM)
Method in brief: as §1

Cell Line | relative viability (OSI-027 + AZD7762; first compound 0.01 µM) | relative viability (OSI-027 + AZD7762; first compound 0.03162 µM) | relative viability (OSI-027 + AZD7762; first compound 0.1 µM) | relative viability (OSI-027 + AZD7762; first compound 0.3162 µM) | relative viability (OSI-027 + AZD7762; first compound 1 µM) | relative viability (OSI-027 + Decitabine; first compound 0.01 µM) | relative viability (OSI-027 + Decitabine; first compound 0.03162 µM) | relative viability (OSI-027 + Decitabine; first compound 0.1 µM) | relative viability (OSI-027 + Decitabine; first compound 0.3162 µM) | relative viability (OSI-027 + Decitabine; first compound 1 µM) | relative viability (OSI-027 + Olaparib; first compound 0.01 µM) | relative viability (OSI-027 + Olaparib; first compound 0.03162 µM) | relative viability (OSI-027 + Olaparib; first compound 0.1 µM) | relative viability (OSI-027 + Olaparib; first compound 0.3162 µM) | relative viability (OSI-027 + Olaparib; first compound 1 µM) | relative viability (Alpelisib + Bortezomib; first compound 0.04 µM) | relative viability (Alpelisib + Bortezomib; first compound 0.1265 µM) | relative viability (Alpelisib + Bortezomib; first compound 0.4 µM) | relative viability (Alpelisib + Bortezomib; first compound 1.265 µM) | relative viability (Alpelisib + Bortezomib; first compound 4 µM)
NCI-H2405 | 0.701 | 0.836 | 0.699 | 0.598 | 0.376 | 0.688 | 0.74 | 0.709 | 0.634 | 0.451 | 0.886 | 0.838 | 0.823 | 0.694 | 0.456 | 0.997 | 0.835 | 0.927 | 0.83 | 0.696
NCI-H727 | 0.557 | 0.568 | 0.41 | 0.576 | 0.546 | 0.808 | 0.778 | 0.849 | 0.774 | 0.761 | 0.675 | 0.688 | 0.671 | 0.752 | 0.556 | 0.806 | 0.693 | 0.988 | 0.759 | 0.465
201T | 0.562 | 0.691 | 0.585 | 0.472 | 0.511 | 0.885 | 0.832 | 0.842 | 0.887 | 0.8 | 0.909 | 0.908 | 0.838 | 0.887 | 0.802 | 1.1 | 1.08 | 1.18 | 1.08 | 1.09
NCI-H1395 | 0.316 | 0.398 | 0.396 | 0.352 | 0.386 | 0.696 | 0.742 | 0.684 | 0.645 | 0.532 | 0.525 | 0.412 | 0.48 | 0.376 | 0.362 | – | – | – | – | –
IA-LM | – | – | – | – | – | – | – | – | – | – | 0.898 | 0.776 | 0.733 | 0.485 | 0.212 | 0.985 | 0.794 | 0.794 | 0.698 | 0.728
SK-LU-1 | – | – | – | – | – | 0.594 | 0.631 | 0.663 | 0.483 | 0.406 | 0.399 | 0.43 | 0.396 | 0.359 | 0.265 | 1.36 | 0.723 | 1.01 | 0.805 | 0.934
NCI-H1703 | – | 0.0974 | – | 0.127 | 0.119 | – | – | – | – | – | 0.424 | 0.552 | 0.316 | 0.304 | 0.19 | 0.348 | 0.208 | 0.231 | 0.223 | 0.234
NCI-H1563 | – | – | – | – | – | – | – | – | – | – | – | – | – | – | – | 0.807 | 0.85 | 0.816 | 0.687 | 0.803
NCI-H661 | – | – | – | – | – | 0.521 | 0.522 | 0.491 | 0.417 | 0.327 | 0.852 | 0.735 | 0.748 | 0.712 | 0.423 | 0.668 | 0.933 | 0.833 | 0.593 | 0.651
NCI-H2009 | – | – | – | – | – | 0.418 | 0.354 | 0.339 | 0.36 | 0.295 | 0.859 | 0.674 | 0.724 | 0.584 | 0.555 | 1.03 | 0.982 | 1.24 | 0.89 | 0.859
NCI-H2228 | – | – | – | – | – | – | – | – | – | – | 0.952 | 0.644 | 0.562 | 0.474 | 0.226 | 0.933 | 0.807 | 0.922 | 0.696 | 0.537

From the supplement of paper PMC10307832
